Measured values published in PMC11209693 (ACS Omega, 2024).

How the values were obtained:
[1] = target: T1, pancreatic lipase (Homo sapiens, UniProt P16233); test: microscale thermophoresis; format: binding
T1 sequence (P16233 17-465): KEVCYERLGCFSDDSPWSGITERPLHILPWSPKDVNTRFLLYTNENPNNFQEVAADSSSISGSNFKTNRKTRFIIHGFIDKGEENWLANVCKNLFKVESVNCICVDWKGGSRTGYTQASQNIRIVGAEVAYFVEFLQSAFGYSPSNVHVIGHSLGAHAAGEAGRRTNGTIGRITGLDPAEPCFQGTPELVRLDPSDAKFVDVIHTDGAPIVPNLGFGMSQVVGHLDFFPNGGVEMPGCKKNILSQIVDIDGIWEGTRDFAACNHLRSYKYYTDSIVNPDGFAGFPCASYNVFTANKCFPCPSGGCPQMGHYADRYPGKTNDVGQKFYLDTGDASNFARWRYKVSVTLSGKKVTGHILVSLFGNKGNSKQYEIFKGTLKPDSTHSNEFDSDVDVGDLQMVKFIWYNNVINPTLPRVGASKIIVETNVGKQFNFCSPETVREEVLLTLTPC

[2] = target: T2, pancreatic lipase (Sus scrofa, UniProt P00591); test: in vitro pancreatic lipase inhibition assay; format: biochemical
T2 sequence (P00591 1-450): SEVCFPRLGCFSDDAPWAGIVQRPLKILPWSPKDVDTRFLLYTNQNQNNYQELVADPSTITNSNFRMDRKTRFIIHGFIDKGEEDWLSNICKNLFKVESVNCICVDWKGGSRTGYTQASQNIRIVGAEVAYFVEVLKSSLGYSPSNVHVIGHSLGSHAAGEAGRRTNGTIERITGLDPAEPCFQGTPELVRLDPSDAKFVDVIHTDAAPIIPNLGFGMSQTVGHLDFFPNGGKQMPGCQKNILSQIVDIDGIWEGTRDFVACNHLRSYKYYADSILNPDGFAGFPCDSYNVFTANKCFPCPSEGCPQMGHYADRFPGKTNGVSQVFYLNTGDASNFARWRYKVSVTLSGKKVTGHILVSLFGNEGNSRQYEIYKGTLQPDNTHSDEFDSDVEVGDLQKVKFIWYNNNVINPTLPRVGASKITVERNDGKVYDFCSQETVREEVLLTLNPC

Kd [1]	IC50 [2]	Structure (SMILES)
23.5 µM		COc1cc(/C=C/C(=O)CC(=O)/C=C/c2ccc(O)c(OC)c2)ccc1O [A6, curcumin, reference compound]
2.91 µM	42.8 µM	O=C(CCc1ccc(O)cc1)CC(=O)CCc1ccc(O)cc1 [C4, 1,7-bis(4-hydroxyphenyl)heptane-3,5-dione]
18.2 µM	98.6 µM	COc1cc(CCC(=O)CC(=O)CCc2ccc(O)c(OC)c2)ccc1O [C6, 1,7-bis(4-hydroxy-3-methoxyphenyl)heptane-3,5-dione]
